Test results from patent publication US12649750B2, “Macrocyclic compounds, compositions, and methods of using thereof” (Sionna Therapeutics Inc., priority 2022, dated 2026).

Assays:
NBD1 = target: T1, NBD1 (Homo sapiens, UniProt P13569); assay: Aggregation analysis using differential static light scattering (DSLS), thermal stability of NBD1 (ΔTagg); assay type: binding; conditions: ΔTagg versus DMSO control, NBD1 0.2 mg/ml
T1 construct: Purified recombinant NBD1 was produced using previously described methods; made in house
Method in brief: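 Stabilisation is measured as the shift in aggregation onset of recombinant NBD1 (0.2 mg/ml, 2 mM ATP, 5 mM MgCl2, pH7.6) exposed to compound. Images are taken every 0.5° C. while heating at 1° C. per minute, and the inflection-point Tagg is corrected by the DMSO mean.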

CFTR = target: T2, CFTR (Homo sapiens, UniProt P13569, DEL508-508); assay: TECC24 AUC fold over DMSO @10 μM, CFTR-mediated transepithelial chloride transport in CF-HBE cells; assay type: cell-based; conditions: test agent AUC divided by DMSO vehicle AUC, primary CF-HBE cells, ΔF508 homozygous donor, 48 hours incubation
T2 construct: Primary human bronchial epithelial cells from a ΔF508 homozygous CF donor; host or cells: primary human bronchial epithelial cells (CF-HBE), ΔF508 homozygous donor
Method in brief: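 Primary ΔF508-homozygous CF bronchial epithelial cells on inserts were incubated 48 h at 36.5 °C with compound in IL-13-containing medium. VT and TEER were then recorded in current-clamp mode (pH 7.4 HEPES bath) with benzamil 10 μM, forskolin 10 μM, then CFTR inhibitor-172 20 μM. The IEQ AUC between forskolin and inhibitor was divided by vehicle AUC.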

T1 sequence (P13569 423-646 limits assumed): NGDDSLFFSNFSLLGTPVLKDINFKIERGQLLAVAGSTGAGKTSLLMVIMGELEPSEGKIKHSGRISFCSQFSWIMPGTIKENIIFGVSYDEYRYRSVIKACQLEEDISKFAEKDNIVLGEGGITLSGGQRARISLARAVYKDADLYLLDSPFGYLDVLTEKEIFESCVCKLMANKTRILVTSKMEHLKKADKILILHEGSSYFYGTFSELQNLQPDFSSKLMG
T2 sequence (P13569 with tags, fused parts or gaps DEL508-508): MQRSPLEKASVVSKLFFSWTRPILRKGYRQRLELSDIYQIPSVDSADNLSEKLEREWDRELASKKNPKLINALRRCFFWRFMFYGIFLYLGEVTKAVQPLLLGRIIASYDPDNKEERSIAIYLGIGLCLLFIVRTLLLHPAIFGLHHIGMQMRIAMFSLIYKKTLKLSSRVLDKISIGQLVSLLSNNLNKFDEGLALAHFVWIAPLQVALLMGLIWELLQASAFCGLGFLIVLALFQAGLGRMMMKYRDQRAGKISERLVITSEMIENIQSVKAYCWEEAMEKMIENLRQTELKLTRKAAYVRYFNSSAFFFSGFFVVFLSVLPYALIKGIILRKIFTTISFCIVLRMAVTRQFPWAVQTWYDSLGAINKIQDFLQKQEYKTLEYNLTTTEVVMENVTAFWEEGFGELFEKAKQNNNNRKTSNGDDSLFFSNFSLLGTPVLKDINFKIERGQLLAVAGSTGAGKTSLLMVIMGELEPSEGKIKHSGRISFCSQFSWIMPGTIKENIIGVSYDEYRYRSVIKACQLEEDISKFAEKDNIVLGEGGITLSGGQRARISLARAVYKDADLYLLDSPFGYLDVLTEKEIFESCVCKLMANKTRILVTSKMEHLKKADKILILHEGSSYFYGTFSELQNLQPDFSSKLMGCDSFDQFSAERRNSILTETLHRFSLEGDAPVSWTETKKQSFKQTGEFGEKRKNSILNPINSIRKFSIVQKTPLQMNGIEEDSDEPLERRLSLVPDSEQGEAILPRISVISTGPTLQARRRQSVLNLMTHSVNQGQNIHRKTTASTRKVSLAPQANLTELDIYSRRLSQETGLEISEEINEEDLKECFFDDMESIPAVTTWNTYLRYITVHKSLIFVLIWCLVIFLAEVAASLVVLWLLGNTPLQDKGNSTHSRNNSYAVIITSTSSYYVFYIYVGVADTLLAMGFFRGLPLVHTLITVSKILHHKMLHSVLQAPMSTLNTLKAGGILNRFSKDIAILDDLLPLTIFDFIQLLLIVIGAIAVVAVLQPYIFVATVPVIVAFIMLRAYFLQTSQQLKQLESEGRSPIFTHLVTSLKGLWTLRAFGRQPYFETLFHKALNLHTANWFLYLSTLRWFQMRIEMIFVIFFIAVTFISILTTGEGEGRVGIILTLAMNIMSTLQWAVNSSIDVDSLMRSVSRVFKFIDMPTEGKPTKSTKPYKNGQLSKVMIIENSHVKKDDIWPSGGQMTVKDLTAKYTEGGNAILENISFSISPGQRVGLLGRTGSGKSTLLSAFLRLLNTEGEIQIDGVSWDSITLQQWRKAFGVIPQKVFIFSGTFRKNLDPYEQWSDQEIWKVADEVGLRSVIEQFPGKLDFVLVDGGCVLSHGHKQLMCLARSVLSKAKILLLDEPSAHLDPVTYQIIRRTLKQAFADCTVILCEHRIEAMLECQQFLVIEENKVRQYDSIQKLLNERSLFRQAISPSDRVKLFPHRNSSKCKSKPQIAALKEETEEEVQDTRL

SMILES | DSLS 3D (100 μM ΔT) (NBD1) | TECC (AUC, 10 μM) (CFTR)
COC(=O)CCc1cccc(C2(C)CCCC(C)(C)CS(=O)(=O)CCc3c(c(F)cc4[nH]ccc34)C(=O)c3ccc(F)c(c3)-c3nc2nn3C)c1 (single isomer, unassigned) [Compound 31A, methyl 3-[3-[22,28-difluoro-3,6,10,10-tetramethyl-12,12,24-trioxo-12lambda6-thia-3,4,19,30-tetrazapentacyclo[23.3.1.12,5.015,23.016,20]triaconta-1(29),2(30),4,15,17,20,22,25,27-nonaen-6-yl]phenyl]propanoate] | B (a value above 5 °C and less than or equal to 10 °C is marked “B”) | C (a value between 20 and 80 is marked “C”)
COC(=O)CCc1cccc(C2(C)CCCC(C)(C)CS(=O)(=O)CCc3c(c(F)cc4[nH]ccc34)C(=O)c3ccc(F)c(c3)-c3nc2nn3C)c1 (single isomer, unassigned) [Compound 31B, methyl 3-[3-[22,28-difluoro-3,6,10,10-tetramethyl-12,12,24-trioxo-12lambda6-thia-3,4,19,30-tetrazapentacyclo[23.3.1.12,5.015,23.016,20]triaconta-1(29),2(30),4,15,17,20,22,25,27-nonaen-6-yl]phenyl]propanoate] | A (an ΔTagg value less than or equal to 5 °C is marked “A”) | B (a value between 12-20 is marked “B”)
Cn1nc2nc1-c1cc(ccc1F)C(=O)c1c(F)cc3[nH]ccc3c1CCS(=O)(=O)CC(C)(C)CCCC2(C)c1cccc(CCC(=O)O)c1 (single isomer, unassigned) [Compound 31C, 3-[3-[22,28-difluoro-3,6,10,10-tetramethyl-12,12,24-trioxo-12lambda6-thia-3,4,19,30-tetrazapentacyclo[23.3.1.12,5.015,23.016,20]triaconta-1(29),2(30),4,15,17,20,22,25,27-nonaen-6-yl]phenyl]propanoic Acid] | C (a value greater than 10 °C and less than or equal to 25 °C is marked “C”) | C (a value between 20 and 80 is marked “C”)
Cn1nc2nc1-c1cc(ccc1F)C(=O)c1c(F)cc3[nH]ccc3c1CCS(=O)(=O)CC(C)(C)CCCC2(C)c1cccc(CCC(=O)O)c1 (single isomer, unassigned) [Compound 31D, 3-[3-[22,28-difluoro-3,6,10,10-tetramethyl-12,12,24-trioxo-12lambda6-thia-3,4,19,30-tetrazapentacyclo[23.3.1.12,5.015,23.016,20]triaconta-1(29),2(30),4,15,17,20,22,25,27-nonaen-6-yl]phenyl]propanoic acid] | A (an ΔTagg value less than or equal to 5 °C is marked “A”) | C (a value between 20 and 80 is marked “C”)
Cn1nc2nc1-c1cc(ccc1F)Cc1c(F)cc3[nH]ccc3c1CCS(=O)(=O)CC(C)(C)CCCC2(C)c1cccc(CCC(=O)O)c1 (single isomer, unassigned) [Compound 32A, 3-[3-(22,28-Difluoro-3,6,10,10-tetramethyl-12,12-dioxo-12lambda6-thia-3,4,19,30-tetrazapentacyclo[23.3.1.12,5.015,23.016,20]triaconta-1(29),2(30),4,15,17,20,22,25,27-nonaen-6-yl)phenyl]propanoic Acid] | A (an ΔTagg value less than or equal to 5 °C is marked “A”) | A (a TECC value less than 12 is marked “A”)
Cn1nc2nc1-c1cc(ccc1F)Cc1c(F)cc3[nH]ccc3c1CCS(=O)(=O)CC(C)(C)CCCC2(C)c1cccc(CCC(=O)O)c1 (single isomer, unassigned) [Compound 32B, 3-[3-(22,28-Difluoro-3,6,10,10-tetramethyl-12,12-dioxo-12lambda6-thia-3,4,19,30-tetrazapentacyclo[23.3.1.12,5.015,23.016,20]triaconta-1(29),2(30),4,15,17,20,22,25,27-nonaen-6-yl)phenyl]propanoic Acid] | C (a value greater than 10 °C and less than or equal to 25 °C is marked “C”) | C (a value between 20 and 80 is marked “C”)
CC(Cc1cccc(C2(C)CCCC(C)(C)CS(=O)(=O)CCc3c(c(F)cc4[nH]ccc34)Sc3ccc(F)c(c3)-c3nc2nn3C)c1)C(=O)O (single isomer, unassigned) [Compound 33A, 3-[3-(22,28-difluoro-3,6,10,10-tetramethyl-12,12-dioxo-12lambda6,24-dithia-3,4,19,30-tetrazapentacyclo[23.3.1.12,5.015,23.016,20]triaconta-1(29),2(30),4,15,17,20,22,25,27-nonaen-6-yl)phenyl]-2-methyl-propanoic Acid] | C (a value greater than 10 °C and less than or equal to 25 °C is marked “C”) | C (a value between 20 and 80 is marked “C”)
CC(Cc1cccc(C2(C)CCCC(C)(C)CS(=O)(=O)CCc3c(c(F)cc4[nH]ccc34)Sc3ccc(F)c(c3)-c3nc2nn3C)c1)C(=O)O (single isomer, unassigned) [Compound 33B, 3-[3-(22,28-difluoro-3,6,10,10-tetramethyl-12,12-dioxo-12lambda6,24-dithia-3,4,19,30-tetrazapentacyclo[23.3.1.12,5.015,23.016,20]triaconta-1(29),2(30),4,15,17,20,22,25,27-nonaen-6-yl)phenyl]-2-methyl-propanoic Acid] | B (a value above 5 °C and less than or equal to 10 °C is marked “B”) | A (a TECC value less than 12 is marked “A”)
CC(Cc1cccc(C2(C)CCCC(C)(C)CS(=O)(=O)CCc3c(c(F)cc4[nH]ccc34)S(=O)(=O)c3ccc(F)c(c3)-c3nc2nn3C)c1)C(=O)O (single isomer, unassigned) [Compound 34A, 3-[3-(22,28-difluoro-3,6,10,10-tetramethyl-12,12,24,24-tetraoxo-12lambda6,24lambda6-dithia-3,4,19,30-tetrazapentacyclo[23.3.1.12,5.015,23.016,20]triaconta-1(29),2(30),4,15,17,20,22,25,27-nonaen-6-yl)phenyl]-2-methyl-propanoic Acid] | C (a value greater than 10 °C and less than or equal to 25 °C is marked “C”) | C (a value between 20 and 80 is marked “C”)
CC(Cc1cccc(C2(C)CCCC(C)(C)CS(=O)(=O)CCc3c(c(F)cc4[nH]ccc34)S(=O)(=O)c3ccc(F)c(c3)-c3nc2nn3C)c1)C(=O)O (single isomer, unassigned) [Compound 34B, 3-[3-(22,28-difluoro-3,6,10,10-tetramethyl-12,12,24,24-tetraoxo-12lambda6,24lambda6-dithia-3,4,19,30-tetrazapentacyclo[23.3.1.12,5.015,23.016,20]triaconta-1(29),2(30),4,15,17,20,22,25,27-nonaen-6-yl)phenyl]-2-methyl-propanoic Acid] | A (an ΔTagg value less than or equal to 5 °C is marked “A”) | A (a TECC value less than 12 is marked “A”)
CC1(C)CCCCC(C)(c2cccc(CCC(=O)O)c2)c2cnc([nH]2)-c2cc(ccc2F)Oc2c(F)cc3[nH]ccc3c2CCS(=O)(=O)C1 (single isomer, unassigned) [Compound 43A, 3-[3-(23,29-difluoro-6,11,11-trimethyl-13,13-dioxo-25-oxa-13lambda6-thia-3,20,31-triazapentacyclo[24.3.1.12,5.016,24.017,21]hentriaconta-1(30),2,4,16,18,21,23,26,28-nonaen-6-yl)phenyl]propanoic Acid] | A (an ΔTagg value less than or equal to 5 °C is marked “A”) | A (a TECC value less than 12 is marked “A”)
CC1(c2cccc(CCC(=O)O)c2)CCCC2(CC2)CS(=O)(=O)CCc2c(c(F)cc3[nH]ccc23)Oc2ccc(F)c(c2)-c2ncc1[nH]2 (single isomer, unassigned) [Compound 45A, 3-[3-(22,28-difluoro-6-methyl-12,12-dioxo-spiro [24-oxa-12lambda6-thia-3,19,30-triazapentacyclo[23.3.1.12, 5.015,23.016,20]triaconta-1(29),2,4,15,17,20,22,25,27-nonaene-10,1′-cyclopropane]-6-yl)phenyl]propanoic acid] | A (an ΔTagg value less than or equal to 5 °C is marked “A”) | A (a TECC value less than 12 is marked “A”)
CC1(c2cccc(CCC(=O)O)c2)CCCC2(CC2)CS(=O)(=O)CCc2c(c(F)cc3[nH]ccc23)Oc2ccc(F)c(c2)-c2ncc1[nH]2 (single isomer, unassigned) [Compound 45B, 3-[3-(22,28-difluoro-6-methyl-12,12-dioxo-spiro [24-oxa-12lambda6-thia-3,19,30-triazapentacyclo[23.3.1.12, 5.015,23.016,20]triaconta-1(29),2,4,15,17,20,22,25,27-nonaene-10,1′-cyclopropane]-6-yl)phenyl]propanoic acid] | C (a value greater than 10 °C and less than or equal to 25 °C is marked “C”) | A (a TECC value less than 12 is marked “A”)
